From patent publication US12491203B2, “Use of mannose 6 phosphate and modifications thereof for memory enhancement and reducing memory impairment” (New York University, priority 2018, dated 2025)
Entries after “also recorded” stand apart in the source; their conditions may differ.

Columns and labels:
[1] = test system: normal (wild type, WT) mice; test: novel object recognition (nOR) paradigm in normal (wild type) mice; assay type: in vivo, mouse
Experimental: FIG. 1. Dose-response curve of the effect of M6P, also called IGF2R.L1 (L1) on nOR in normal (wild type, WT) mice. Experimental timeline is shown above graphs. Data are expressed as the mean±s.e.m. N=4 per group. One-way analysis of variance (ANOVA) followed by Bonferroni post-hoc tests. *P<0.05, **P<0.01. WT mice were injected s.c. with vehicle solution or different doses of IGF2R.L1 (L1) 20 min prior to training on nOR. Graphs show percent exploration preference for the novel object compared to the familiar object at testing performed at 4 h and 24 h after training.
(§1) FIG. 2. M6P reverses object recognition memory deficits in a mouse model of Angelman syndrome and enhances memory in WT mice. Experimental timelines are shown above graphs. In all experiments mice received a s.c. injection of vehicle or M6P (↑) 20 min before nOR training or testing. Percent exploration preference for a novel object compared to a familiar object during novel object recognition of WT (Control) and Ube3a−/+(AS) mice injected with vehicle or M6P (labeled as IGF-2R.L1), 20 min before training, tested at 4 h and 24 h after training. N=4/group. All data are expressed as the mean (±s.e.m.). Two-way analysis of variance (ANOVA) followed by Tukey post-hoc tests. *P<0.05, **P<0.01, ***P<0.001.
FIG. 4. An M6P derivative, phosphonate M6P (PnM6P), enhances memory in mice. Experimental timeline is shown above graphs. Mice received a s.c. injection of either vehicle or 850 μg/Kg of phosphonate-M6P (PnM6P) called IGF-2R.L2 (or L2) (↑) 20 min before training. (A) Percent exploration preference for a novel object compared to a familiar object during the nOR paradigm of mice injected with vehicle or L2 20 min before training, and tested at 24 h (Test 1), 5 days (Test 2) and 14 days (Test 3) after training. N=8-10/group. Data are expressed as the % mean±s.e.m. (B). Total time spent exploring both objects during the nOR training session of mice injected with vehicle or L2 20 min before training. N=4 per group. […] Data are expressed in seconds (s). Two-way analysis of variance (ANOVA) followed by Bonferroni post-hoc tests. *P<0.05, **P<0.01, ***P<0.001.
FIG. 5. Comparing M6P (L1) and PnM6P (L2) effects on memory retention: both L1 and L2 similarly enhance nOR in mice. Experimental timeline is shown above graphs. Mice received a s.c. injection of either vehicle or 850 μg/Kg of phosphonate-M6P (PnM6P) called IGF-2R.L2 (or L2) or 850 μg/Kg of M6P (IGF-2R.L1 or L1) (↑) 20 min before training. (A) Percent exploration preference for a novel object compared to a familiar object during the nOR paradigm of mice injected with vehicle, L2 or L1 20 min before training, and tested at 24 h (Test 1), 5 days (Test 2) and 14 days (Test 3) after training. N=4-10/group. Data are expressed as the % mean±s.e.m. (B). Total time spent exploring both objects during the nOR training session of mice injected with vehicle, L2 or L1 20 min before training. N=2-4 per group. […] Data are expressed in seconds (s). Two-way analysis of variance (ANOVA) followed by Bonferroni post-hoc tests. *P<0.05, **P<0.01, ***P<0.001.
FIG. 6. PnM6P (L2) reverses object recognition memory deficits in a mouse model of Angelman syndrome. Experimental timeline is shown above graphs. Mice received a s.c. injection of either vehicle or 850 μg/Kg of phosphonate-M6P (PnM6P) called IGF-2R.L2 (or L2) (↑) 20 min before either training or testing. (A) Percent exploration preference for a novel object compared to a familiar object during the nOR paradigm of wild type (WT served as Control mice) and Ube3a−/+(AS) mice injected with vehicle or L2 before training, and tested at 4 h, 24 h and 5 days (5d) after training. N=4/group. Data are expressed as the % mean±s.e.m. (B). Total time spent exploring the 2 objects during the nOR training session of WT and AS mice injected with vehicle or L2 20 min before training. N=4/per group. […] Data are expressed in seconds (s). […]

Ube3a-/+ (AS) mice = test: novel object recognition (nOR) paradigm in mouse model of Angelman syndrome; assay type: in vivo
Experimental: as §1
FIG. 6. PnM6P (L2) reverses object recognition memory deficits in a mouse model of Angelman syndrome. Experimental timeline is shown above graphs. Mice received a s.c. injection of either vehicle or 850 μg/Kg of phosphonate-M6P (PnM6P) called IGF-2R.L2 (or L2) (↑) 20 min before either training or testing. (A) Percent exploration preference for a novel object compared to a familiar object during the nOR paradigm of wild type (WT served as Control mice) and Ube3a−/+(AS) mice injected with vehicle or L2 before training, and tested at 4 h, 24 h and 5 days (5d) after training. N=4/group. Data are expressed as the % mean±s.e.m. (B). Total time spent exploring the 2 objects during the nOR training session of WT and AS mice injected with vehicle or L2 20 min before training. N=4/per group. […] Data are expressed in seconds (s). Two-way analysis of variance (ANOVA) followed by Bonferroni post-hoc tests. *P<0.05, **P<0.01, ***P<0.001.
Specifically, we used the novel object recognition (nOR) paradigm in mice to assess non-aversive episodic memory. In this task, the innate preference for novelty of the rodent is used. During training, the mouse is allowed to explore 2 identical objects. On test day, one of the training objects is replaced with a novel object. Because mice have an innate preference for novelty, if the mouse recognizes the familiar object, it will spend more time at the novel object.

adult rats = test: inhibitory avoidance (IA) contextual fear memory task, intra-hippocampal injection; assay type: in vivo, rat; conditions: for avoidance memory (latency) vs vehicle: bilateral intra-hippocampal injection immediately after training
Experimental: FIG. 3. M6P injected into the hippocampus of rats enhances memory: dose-response curve. Experimental timeline is shown above graph. Rats received a bilateral intra-hippocampal injection of vehicle or different doses of IGF-2R.L1 (M6P) (↑) immediately after training in the contextual fear memory task inhibitory avoidance (IA). Memory retention was then tested at 24 hours (T1) and 7 days (T2) after training. Testing measured the latency to enter the compartment in which the animals received a foot shock during training. N=12/group. All data are expressed as the mean (±s.e.m.). Two-way repeated measures analysis of variance (ANOVA) followed by Bonferroni post-hoc tests. *P<0.05, **P<0.01, ***P<0.001. […] In these experiments, adult rats were trained in the inhibitory avoidance (IA) paradigm. In this paradigm the animals learn to avoid a chamber paired with a foot-shock.

[2] = WT mice, 850 μg/Kg s.c. 20 min before training, tested 14 days after training

Row | Compound | nOR memory vs vehicle ([1]; WT mice, 850 μg/Kg s.c. 20 min before training, tested 4 h after training (FIG. 6)) | nOR memory retention vs vehicle ([1]; WT mice, 850 μg/Kg s.c. 20 min before training, tested 24 h after training) | nOR memory retention vs vehicle ([1]; WT mice, 850 μg/Kg s.c. 20 min before training, tested 5 days after training) | nOR memory retention vs vehicle [1, 2] | nOR memory deficit reversal (Ube3a-/+ (AS) mice; 850 μg/Kg s.c. 20 min before training, tested 4 h after training (FIG. 6)) | nOR memory vs vehicle (Ube3a-/+ (AS) mice; 850 μg/Kg s.c. 20 min before training, tested 24 h after training (FIG. 6)) | nOR memory (exploration preference for novel object) vs vehicle ([1]; WT control mice, s.c. injection 20 min before training, tested 4 h after training (FIG. 2)) | nOR memory retention vs vehicle ([1]; WT control mice, s.c. injection 20 min before training, tested 24 h after training (FIG. 2)) | nOR memory deficit reversal (Ube3a-/+ (AS) mice; s.c. injection 20 min before training, tested 4 h after training (FIG. 2)) | nOR memory retention vs vehicle (Ube3a-/+ (AS) mice; s.c. injection 20 min before training, tested 24 h after training (FIG. 2)) | avoidance memory (latency) vs vehicle (adult rats; retested 6 days later (7 days after training, T2)) | avoidance memory (latency) vs vehicle (adult rats; tested 1 day (24 h, T1) after training) | dose dependence of memory-enhancing effect (adult rats; bilateral intra-hippocampal injection, different doses)
1 | COC1OC(CCP(=O)(OCOC(=O)OC(C)C)OCOC(=O)OC(C)C)C(O)C(O)C1O [L2, Methyl 6-Deoxy-6-diisopropyloxycarbonyloxy-methyl-phosphinylmethyl-α-D-mannopyranoside] | enhanced memory | significantly increased memory retention at both timepoints; also recorded: significant memory in both groups | significantly increased memory retention at both timepoints | memory enhancement was no longer seen; also recorded: returned to baseline | reversed memory deficits in AS mice | significant memory in both groups |  |  |  |  |  |  | 
2 | O=C[C@@H](O)[C@@H](O)[C@H](O)[C@H](O)COP(=O)(O)O [L1, mannose-6-phosphate] |  |  |  | returned to baseline |  |  | significant memory enhancement | significantly increased memory retention in both groups | reversed memory deficits in AS mice | significantly increased memory retention in both groups | effect persisted | significant increase in avoidance memory | dose dependent
